Like-named read-outs stand apart in the source and are kept apart here.
Key:
[1] = target: B-Raf (V600E) (Homo sapiens (Human), UniProt P15056, V600E); test: Raf IC50 assay, time-resolved fluorescence energy transfer (TR-FRET), B-Raf; format: biochemical
Protocol: The enzyme was incubated with the compounds at room temperature for 60 minutes and the reactions were initiated by the addition of ATP and GST-MEK1. […] Plates were sealed and incubated at room temperature for 2 hours, and then the TR-FRET signals were read on BMG PHERAstar FS instrument. The IC50 for each compound was calculated by non linear regression by Graphpad Prism software.

[2] = target: C-Raf (Y340D/Y341D) (Homo sapiens (Human), UniProt P04049, Y340D/Y341D); test: Raf IC50 assay, time-resolved fluorescence energy transfer (TR-FRET), C-Raf; format: biochemical; conditions: 0.5 nM C-Raf, 0.1 mM ATP, GST-tagged MEK1 substrate, 60 min preincubation
Protocol: The assay was carried out in reactions (10 μL) containing 0.0625 nM B-Raf or 0.5 nM C-Raf, 25 mM Tris pH7.4, 10 mM MgCl2, 0.5 mM EGTA, 0.5 mM […], 5 mM beta-glycerophosphate, 0.01% Triton X-100, 2.5 mM DTT, 0.1% BSA, 0.1 mM ATP, 13.7 nM GST-tagged MEK1 (Full-length protein with K97R mutation, recombinant protein purified from bacterial expression system) and 0-5 μM compounds disclosed herein (final concentration of 1% DMSO). The enzyme was incubated with the compounds at room temperature for 60 minutes and the reactions were initiated by the addition of ATP and GST-MEK1. After incubating at room temperature for 60 minutes, an equal volume of stop buffer containing 25 mM Tris pH7.4, 400 mM KF, 50 mM EDTA, 0.01% BSA, 0.01% Triton X-100, 1 test of Eu3+ Cryptate-conjugated rabbit polyclonal antibody anti-Phospho MEK1/2 (Ser217/221) and 1 test of d2-conjugated mouse monoclonal antibody anti-glutathione S-transferase was added to stop the reactions. Plates were sealed and incubated at room temperature for 2 hours, and then the TR-FRET signals were read on BMG PHERAstar FS instrument. The IC50 for each compound was calculated by non linear regression by Graphpad Prism software.

[3] = 0.0625 nM B-Raf, 0.1 mM ATP, GST-tagged MEK1 substrate, 60 min preincubation, read-out: B-Raf (V600E) IC50

Sequence of B-Raf (V600E) (P15056 whole entry V600E): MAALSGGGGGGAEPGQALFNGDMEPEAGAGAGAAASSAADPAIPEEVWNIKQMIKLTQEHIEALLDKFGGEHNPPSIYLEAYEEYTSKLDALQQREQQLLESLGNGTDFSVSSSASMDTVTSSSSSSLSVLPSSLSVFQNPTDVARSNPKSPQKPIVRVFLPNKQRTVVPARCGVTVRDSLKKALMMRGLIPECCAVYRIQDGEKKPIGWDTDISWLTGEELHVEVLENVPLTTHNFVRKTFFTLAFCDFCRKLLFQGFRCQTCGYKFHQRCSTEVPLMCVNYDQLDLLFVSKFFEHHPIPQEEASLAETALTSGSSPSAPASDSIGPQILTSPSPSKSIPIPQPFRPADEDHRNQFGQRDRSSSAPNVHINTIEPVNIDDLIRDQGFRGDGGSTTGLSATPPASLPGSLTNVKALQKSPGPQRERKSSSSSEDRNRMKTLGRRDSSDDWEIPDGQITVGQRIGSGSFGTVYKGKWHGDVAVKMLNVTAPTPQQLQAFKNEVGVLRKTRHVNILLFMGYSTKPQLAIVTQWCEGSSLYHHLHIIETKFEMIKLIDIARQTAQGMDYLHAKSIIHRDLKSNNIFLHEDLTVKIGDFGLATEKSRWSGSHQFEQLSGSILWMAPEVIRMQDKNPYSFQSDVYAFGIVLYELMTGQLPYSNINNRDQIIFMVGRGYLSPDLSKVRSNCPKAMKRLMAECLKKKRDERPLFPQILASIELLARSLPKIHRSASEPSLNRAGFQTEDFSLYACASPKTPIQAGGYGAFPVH
Sequence of C-Raf (Y340D/Y341D) (P04049 whole entry Y340D/Y341D): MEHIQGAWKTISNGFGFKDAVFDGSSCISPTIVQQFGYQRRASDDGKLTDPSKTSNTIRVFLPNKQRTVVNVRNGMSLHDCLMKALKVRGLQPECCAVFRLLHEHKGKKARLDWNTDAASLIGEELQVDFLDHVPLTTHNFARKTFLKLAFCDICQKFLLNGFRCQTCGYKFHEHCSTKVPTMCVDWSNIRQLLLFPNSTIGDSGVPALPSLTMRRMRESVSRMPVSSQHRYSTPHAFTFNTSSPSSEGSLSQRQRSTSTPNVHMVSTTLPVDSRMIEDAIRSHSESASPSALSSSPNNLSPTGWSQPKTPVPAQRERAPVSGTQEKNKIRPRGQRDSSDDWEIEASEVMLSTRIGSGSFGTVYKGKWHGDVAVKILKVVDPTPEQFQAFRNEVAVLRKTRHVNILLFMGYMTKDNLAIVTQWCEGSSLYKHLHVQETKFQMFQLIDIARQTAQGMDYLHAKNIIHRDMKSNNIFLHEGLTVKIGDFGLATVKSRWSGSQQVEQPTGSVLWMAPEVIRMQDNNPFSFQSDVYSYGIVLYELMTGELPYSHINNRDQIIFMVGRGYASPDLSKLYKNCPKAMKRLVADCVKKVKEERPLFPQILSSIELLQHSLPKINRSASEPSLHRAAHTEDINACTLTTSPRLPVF

Structure (SMILES): O=C1CCc2c(Oc3ccc4c(c3)C3C(O4)C3c3nc(-c4ccccc4)c[nH]3)ccnc2N1 (racemic) [Compound 2.30, (±)-exo-5-((1-(4-phenyl-1H-imidazol-2-yl)-1a,6b-dihydro-1H-cyclopropa[b]benzofuran-5-yl)oxy)-3,4-dihydro-1,8-naphthyridin-2(1H)-one]
- IC50 [1, 3]: 0.72 nM
- IC50 [2]: < 0.25 nM

Structure (SMILES): O=C1CCc2c(Oc3ccc4c(c3)C3C(O4)C3c3nc(-c4ccncc4)c[nH]3)ccnc2N1 (centres unmarked) [Compound 2.31]
- IC50 [1, 3]: 3.7 nM
- IC50 [2]: 0.35 nM

Structure (SMILES): FC(F)(F)c1ccc2nc(C3C4Oc5ccc(Oc6ccncc6)cc5C43)[nH]c2c1 (racemic) [Compound 3.6, (±)-exo-2-(5-(pyridin-4-yloxy)-1a,6b-dihydro-1H-cyclopropa[b]benzofuran-1-yl)-6-(trifluoromethyl)-1H-benzo[d]imidazole]
- IC50 [1, 3]: 518 nM
- IC50 [2]: 86 nM

Structure (SMILES): O=C1CCc2c(Oc3ccc4c(c3)C3C(O4)C3c3nc4cccc(C(F)(F)F)c4[nH]3)ccnc2N1 (centres unmarked) [Compound 2.18]
- IC50 [1, 3]: 89 nM
- IC50 [2]: 6.2 nM

Structure (SMILES): O=C1CCc2c(Oc3ccc4c(c3)C3C(O4)C3c3nc4ccc(OC(F)(F)F)cc4[nH]3)ccnc2N1 (centres unmarked) [Compound 2.14]
- IC50 [1, 3]: 28 nM
- IC50 [2]: 9.7 nM

Structure (SMILES): O=C1CCc2c(Oc3ccc4c(c3)C3C(O4)C3c3nc4ccc(Cl)cc4[nH]3)ccnc2N1 (centres unmarked) [Compound 2.12]
- IC50 [1, 3]: 12 nM
- IC50 [2]: 4.1 nM

Structure (SMILES): FC(F)(F)c1ccc2nc(C3C4Oc5ccc(Oc6ccnc7[nH]ccc67)cc5C43)[nH]c2c1 (racemic) [Compound 3.3, (±)-exo-2-(5-((1H-pyrrolo[2,3-b]pyridin-4-yl)oxy)-1a,6b-dihydro-1H-cyclopropa[b]benzofuran-1-yl)-6-(trifluoromethyl)-1H-benzo[d]imidazole]
- IC50 [1, 3]: 522 nM
- IC50 [2]: 104 nM

Structure (SMILES): O=C1CCc2c(Oc3ccc4c(c3)C3C(O4)C3C(=O)O)ccnc2N1 (racemic) [Intermediate II, (±)-exo-5-((7-Oxo-5,6,7,8-tetrahydro-1,8-naphthyridin-4-yl)oxy)-1a,6b-dihydro-1H-cyclopropa[b]benzofuran-1-carboxylic acid]
- IC50 [1]: > 5000 nM
- IC50 [2]: 2910 nM

Structure (SMILES): O=C1CCc2c(Oc3ccc4c(c3)[C@@H]3[C@H](O4)[C@H]3c3nc4ccc(C(F)(F)F)cc4[nH]3)ccnc2N1 [Compound 2.2b, 5-(((1R,1aS,6bR)-1-(6-(trifluoromethyl)-1H-benzo[d]imidazol-2-yl)-1a,6b-dihydro-1H-cyclopropa[b]benzofuran-5-yl)oxy)-3,4-dihydro-1,8-naphthyridin-2(1H)-one]
- IC50 [1, 3]: 53 nM
- IC50 [2]: 8.8 nM

Structure (SMILES): Cc1ccc2nc(C3C4Oc5ccc(Oc6ccnc7c6CCC(=O)N7)cc5C43)[nH]c2c1 (centres unmarked) [Compound 2.8]
- IC50 [1, 3]: 3.7 nM
- IC50 [2]: 0.71 nM

Structure (SMILES): CC(C)(C)c1ccc2nc(C3C4Oc5ccc(Oc6ccnc7c6CCC(=O)N7)cc5C43)[nH]c2c1 (centres unmarked) [Compound 2.20]
- IC50 [1, 3]: 33 nM
- IC50 [2]: 4.4 nM

Structure (SMILES): O=C1CCc2c(Oc3ccc4c(c3)C3C(C4)C3C(=O)O)ccnc2N1 (racemic) [Intermediate I, (±)-exo-3-((7-Oxo-5,6,7,8-tetrahydro-1,8-naphthyridin-4-yl)oxy)-1,1a,6,6a-tetrahydrocyclopropa[a]indene-1-carboxylic acid]
- IC50 [1]: > 5000 nM
- IC50 [2]: > 5000 nM

Structure (SMILES): O=C1CCc2c(Oc3ccc4c(c3)C3C(O4)C3c3nc4cc(F)c(F)cc4[nH]3)ccnc2N1 (centres unmarked) [Compound 2.11]
- IC50 [1, 3]: 5.9 nM
- IC50 [2]: 3.3 nM

— patent publication US9273046B2, “Fused tricyclic compounds as Raf kinase inhibitors” (BeiGene, LTD., priority 2011, dated 2016)
